Numbers after ± are expanded uncertainties.
Legend:
[1] = xn = mol fraction of the nth substance listed; details: for surface tension liquid-gas: Ring tensiometer; for viscosity / mass density: 101.3 kPa, Liquid; for viscosity: Capillary tube (Ostwald / Ubbelohde) method; for mass density: Vibrating tube method
[2] = refractive index (Na D-line) (dimensionless); xn = mol fraction of the nth substance listed; details: 101.3 kPa, Liquid, Standard Abbe refractometry

Compound `C[N+](C)(C)CCO.[Cl-]` [choline chloride] + NCCO has a surface tension liquid-gas ([1]; 298.15 K, x1 = 0.11) of 49.6 ± 0.7 mN/m, a surface tension liquid-gas ([1]; 298.15 K, x1 = 0.13) of 49.2 ± 0.7 mN/m and a surface tension liquid-gas ([1]; 298.15 K, x1 = 0.14) of 48.7 ± 0.7 mN/m. The surface tension liquid-gas ([1]; 298.15 K, x1 = 0.16) was 48.2 ± 0.7 mN/m, the viscosity ([1]; 298.15 K, x1 = 0.11) was 32.7 ± 3.3 mPa·s and the viscosity ([1]; 298.15 K, x1 = 0.13) was 37.7 ± 3.8 mPa·s. The viscosity ([1]; 298.15 K, x1 = 0.14) was 36.7 ± 3.7 mPa·s, the viscosity ([1]; 298.15 K, x1 = 0.16) was 48.5 ± 4.9 mPa·s and the mass density ([1]; 298.15 K, x1 = 0.11) was 1062.8 ± 2.2 kg/m3. For the same compound, the mass density ([1]; 298.15 K, x1 = 0.13) was 1065 ± 2.2 kg/m3, the mass density ([1]; 298.15 K, x1 = 0.14) was 1069 ± 2.2 kg/m3 and the mass density ([1]; 298.15 K, x1 = 0.16) was 1076.7 ± 2.2 kg/m3. It also gave a surface tension liquid-gas ([1]; 308.15 K, x1 = 0.11) of 48.8 ± 0.7 mN/m, a surface tension liquid-gas ([1]; 308.15 K, x1 = 0.13) of 48.5 ± 0.7 mN/m and a surface tension liquid-gas ([1]; 308.15 K, x1 = 0.14) of 48 ± 0.7 mN/m. The surface tension liquid-gas ([1]; 308.15 K, x1 = 0.16) was 47.6 ± 0.7 mN/m, the viscosity ([1]; 308.15 K, x1 = 0.11) was 22.6 ± 2.3 mPa·s and the viscosity ([1]; 308.15 K, x1 = 0.13) was 25.5 ± 2.6 mPa·s. For the same compound, the viscosity ([1]; 308.15 K, x1 = 0.14) was 25 ± 2.5 mPa·s, the viscosity ([1]; 308.15 K, x1 = 0.16) was 28.8 ± 2.9 mPa·s and the mass density ([1]; 308.15 K, x1 = 0.11) was 1055.2 ± 2.2 kg/m3. For the same compound, the mass density ([1]; 308.15 K, x1 = 0.13) was 1057.6 ± 2.2 kg/m3, the mass density ([1]; 308.15 K, x1 = 0.14) was 1061.7 ± 2.2 kg/m3 and the mass density ([1]; 308.15 K, x1 = 0.16) was 1069.6 ± 2.2 kg/m3. The surface tension liquid-gas ([1]; 318.15 K, x1 = 0.11) was 47.9 ± 0.7 mN/m, the surface tension liquid-gas ([1]; 318.15 K, x1 = 0.13) was 47.8 ± 0.7 mN/m and the surface tension liquid-gas ([1]; 318.15 K, x1 = 0.14) was 47.4 ± 0.7 mN/m. The surface tension liquid-gas ([1]; 318.15 K, x1 = 0.16) was 46.9 ± 0.7 mN/m, the viscosity ([1]; 318.15 K, x1 = 0.11) was 15 ± 1.5 mPa·s and the viscosity ([1]; 318.15 K, x1 = 0.13) was 13.8 ± 1.4 mPa·s. For the same compound, the viscosity ([1]; 318.15 K, x1 = 0.14) was 16.8 ± 1.7 mPa·s, the viscosity ([1]; 318.15 K, x1 = 0.16) was 20.1 ± 2 mPa·s and the mass density ([1]; 318.15 K, x1 = 0.11) was 1047.8 ± 2.1 kg/m3. The mass density ([1]; 318.15 K, x1 = 0.13) was 1050.3 ± 2.1 kg/m3, the mass density ([1]; 318.15 K, x1 = 0.14) was 1054.4 ± 2.2 kg/m3 and the mass density ([1]; 318.15 K, x1 = 0.16) was 1062.7 ± 2.2 kg/m3. For the same compound, the surface tension liquid-gas ([1]; 328.15 K, x1 = 0.11) was 47.2 ± 0.7 mN/m, the surface tension liquid-gas ([1]; 328.15 K, x1 = 0.13) was 47.1 ± 0.7 mN/m and the surface tension liquid-gas ([1]; 328.15 K, x1 = 0.14) was 46.7 ± 0.7 mN/m. It also gave a surface tension liquid-gas ([1]; 328.15 K, x1 = 0.16) of 46.2 ± 0.7 mN/m, a viscosity ([1]; 328.15 K, x1 = 0.11) of 10.5 ± 1.1 mPa·s and a viscosity ([1]; 328.15 K, x1 = 0.13) of 10.1 ± 1 mPa·s. The viscosity ([1]; 328.15 K, x1 = 0.14) was 11.2 ± 1.1 mPa·s, the viscosity ([1]; 328.15 K, x1 = 0.16) was 13.5 ± 1.4 mPa·s and the mass density ([1]; 328.15 K, x1 = 0.11) was 1040.4 ± 2.1 kg/m3. The mass density ([1]; 328.15 K, x1 = 0.13) was 1043 ± 2.1 kg/m3, the mass density ([1]; 328.15 K, x1 = 0.14) was 1047.2 ± 2.1 kg/m3 and the mass density ([1]; 328.15 K, x1 = 0.16) was 1055.9 ± 2.2 kg/m3. For the same compound, the surface tension liquid-gas ([1]; 338.15 K, x1 = 0.11) was 46.4 ± 0.7 mN/m, the surface tension liquid-gas ([1]; 338.15 K, x1 = 0.13) was 46.4 ± 0.7 mN/m and the surface tension liquid-gas ([1]; 338.15 K, x1 = 0.14) was 46 ± 0.7 mN/m. For the same compound, the surface tension liquid-gas ([1]; 338.15 K, x1 = 0.16) was 45.6 ± 0.7 mN/m, the viscosity ([1]; 338.15 K, x1 = 0.11) was 7.1 ± 0.7 mPa·s and the viscosity ([1]; 338.15 K, x1 = 0.13) was 7.9 ± 0.8 mPa·s. The viscosity ([1]; 338.15 K, x1 = 0.14) was 8.8 ± 0.9 mPa·s, the viscosity ([1]; 338.15 K, x1 = 0.16) was 9.8 ± 1 mPa·s and the mass density ([1]; 338.15 K, x1 = 0.11) was 1033 ± 2.1 kg/m3. For the same compound, the mass density ([1]; 338.15 K, x1 = 0.13) was 1035.6 ± 2.1 kg/m3, the mass density ([1]; 338.15 K, x1 = 0.14) was 1039.9 ± 2.1 kg/m3 and the mass density ([1]; 338.15 K, x1 = 0.16) was 1049 ± 2.1 kg/m3. The surface tension liquid-gas ([1]; 348.15 K, x1 = 0.11) was 45.8 ± 0.7 mN/m, the surface tension liquid-gas ([1]; 348.15 K, x1 = 0.13) was 45.8 ± 0.7 mN/m and the surface tension liquid-gas ([1]; 348.15 K, x1 = 0.14) was 45.3 ± 0.6 mN/m. The surface tension liquid-gas ([1]; 348.15 K, x1 = 0.16) was 45 ± 0.6 mN/m, the viscosity ([1]; 348.15 K, x1 = 0.11) was 5.9 ± 0.6 mPa·s and the viscosity ([1]; 348.15 K, x1 = 0.13) was 6 ± 0.6 mPa·s. It also gave a viscosity ([1]; 348.15 K, x1 = 0.14) of 6.6 ± 0.7 mPa·s, a viscosity ([1]; 348.15 K, x1 = 0.16) of 7.5 ± 0.8 mPa·s and a mass density ([1]; 348.15 K, x1 = 0.11) of 1025.6 ± 2.1 kg/m3. It also gave a mass density ([1]; 348.15 K, x1 = 0.13) of 1028.3 ± 2.1 kg/m3, a mass density ([1]; 348.15 K, x1 = 0.14) of 1032.6 ± 2.1 kg/m3 and a mass density ([1]; 348.15 K, x1 = 0.16) of 1042 ± 2.1 kg/m3. For the same compound, the surface tension liquid-gas ([1]; 358.15 K, x1 = 0.11) was 45 ± 0.6 mN/m, the surface tension liquid-gas ([1]; 358.15 K, x1 = 0.13) was 44.9 ± 0.6 mN/m and the surface tension liquid-gas ([1]; 358.15 K, x1 = 0.14) was 44.7 ± 0.6 mN/m. It also gave a surface tension liquid-gas ([1]; 358.15 K, x1 = 0.16) of 44.4 ± 0.6 mN/m, a viscosity ([1]; 358.15 K, x1 = 0.11) of 4.7 ± 0.5 mPa·s and a viscosity ([1]; 358.15 K, x1 = 0.13) of 5.2 ± 0.5 mPa·s. It also gave a viscosity ([1]; 358.15 K, x1 = 0.14) of 5.3 ± 0.5 mPa·s, a viscosity ([1]; 358.15 K, x1 = 0.16) of 5.9 ± 0.6 mPa·s and a mass density ([1]; 358.15 K, x1 = 0.11) of 1018.1 ± 2.1 kg/m3. It also gave a mass density ([1]; 358.15 K, x1 = 0.13) of 1020.9 ± 2.1 kg/m3, a mass density ([1]; 358.15 K, x1 = 0.14) of 1025.3 ± 2.1 kg/m3 and a mass density ([1]; 358.15 K, x1 = 0.16) of 1035 ± 2.1 kg/m3. For the same compound, the refractive index ([2]; 298.15 K, x1 = 0.11) was 1.47733 ± 0.00042, the refractive index ([2]; 298.15 K, x1 = 0.13) was 1.47875 ± 0.00042 and the refractive index ([2]; 298.15 K, x1 = 0.14) was 1.48117 ± 0.00042. It also gave a refractive index ([2]; 298.15 K, x1 = 0.16) of 1.48388 ± 0.00043, a refractive index ([2]; 308.15 K, x1 = 0.11) of 1.47404 ± 0.00042 and a refractive index ([2]; 308.15 K, x1 = 0.13) of 1.47541 ± 0.00042. For the same compound, the refractive index ([2]; 308.15 K, x1 = 0.14) was 1.47797 ± 0.00042, the refractive index ([2]; 308.15 K, x1 = 0.16) was 1.47998 ± 0.00043 and the refractive index ([2]; 318.15 K, x1 = 0.11) was 1.47092 ± 0.00042. The refractive index ([2]; 318.15 K, x1 = 0.13) was 1.47217 ± 0.00042, the refractive index ([2]; 318.15 K, x1 = 0.14) was 1.47445 ± 0.00042 and the refractive index ([2]; 318.15 K, x1 = 0.16) was 1.47623 ± 0.00043. For the same compound, the refractive index ([2]; 328.15 K, x1 = 0.11) was 1.46759 ± 0.00042, the refractive index ([2]; 328.15 K, x1 = 0.13) was 1.46908 ± 0.00042 and the refractive index ([2]; 328.15 K, x1 = 0.14) was 1.47101 ± 0.00042. It also gave a refractive index ([2]; 328.15 K, x1 = 0.16) of 1.47257 ± 0.00043, a refractive index ([2]; 338.15 K, x1 = 0.11) of 1.46419 ± 0.00042 and a refractive index ([2]; 338.15 K, x1 = 0.13) of 1.46539 ± 0.00043. The refractive index ([2]; 338.15 K, x1 = 0.14) was 1.46761 ± 0.00042, the refractive index ([2]; 338.15 K, x1 = 0.16) was 1.46842 ± 0.00043 and the refractive index ([2]; 348.15 K, x1 = 0.11) was 1.46095 ± 0.00042. The refractive index ([2]; 348.15 K, x1 = 0.13) was 1.46171 ± 0.00042, the refractive index ([2]; 348.15 K, x1 = 0.14) was 1.46444 ± 0.00042 and the refractive index ([2]; 348.15 K, x1 = 0.16) was 1.46421 ± 0.00043. The refractive index ([2]; 358.15 K, x1 = 0.11) was 1.45742 ± 0.00042, the refractive index ([2]; 358.15 K, x1 = 0.13) was 1.45833 ± 0.00042 and the refractive index ([2]; 358.15 K, x1 = 0.14) was 1.46049 ± 0.00043. For the same compound, the refractive index ([2]; 358.15 K, x1 = 0.16) was 1.46031 ± 0.00043.

Source: the NIST ThermoML archive (doi:10.1016/j.fluid.2017.03.008)
